Reference: patent US20020169205A1, “Implantation rates after in vitro fertilization, and treatment of infertility and early pregnancy loss with a nitric oxide donor or substrate alone or in combination with progesterone, and a method for contraception with nitric oxide inhibitors in combination with antiprogestins or other agents” (priority 1998, published 2002)

Key:
implantation in rats = assay: Effects of L-NAME on implantation in pregnant rats (FIG. 1 and FIG. 2); assay type: in vivo
Description: The animals were treated with 25 and 50 mg/animal/day L-NAME administered via continuous s.c. infusion from day 1 post coitum (p.c.) until day 7 p.c The autopsy was performed on day 12 p.c.
The animals were treated with 25 and 50 mg/animal/day L-NAME administered via continuous s.c. infusion on day 5-7 (p.c.). The autopsy was performed on either day 9 p.c. or day 12 p.c.
In the experiments whose results are shown in FIG. 1, pregnant rats (n=6/group) were treated with 25 and 50 mg/animal/day L-NAME from day 1 p.c. until day 7 p.c., i.e. during the period of pre-implantation and early implantation (in rats implantation takes place on day 5 p.c. ). The control animals were treated with the vehicle. During autopsy (days 9 and 12 p.c.) the implantation sites were assessed macroscopically, their diameter was measured, and the weights of isolated implantation sites (embryonic and placental tissues) were recorded. FIG. 2 presents results from a second study In pregnant rats in which L-NAME (25 and 50 mg/anilal/day) treatment was performed on days 5-7 p.c., i.e. shortly after nidation had taken place. The autopsy was performed on day 12 p.c. Implantation showing haemorrhagic changes were defined as pathological implantation sites.

[1] = system: uterine strips from rats at mid to near term gestation; conditions: cited from earlier work
uterine blood flow = conditions: low dose aspirin, patients with impeded blood flow; cited from earlier work
implantation = assay: Other studies: L-NAME effects on implantation combined with low-dose onapristone; assay type: in vivo; conditions: onapristone low-dose 0.1-0.3 mg/animal/day together with L-NAME
[2] = 25 and 50 mg/animal/day s.c. infusion, autopsy day 9 or 12 p.c.

## COC(=O)[C@@H](N)CCCNC(=N)N[N+](=O)[O-] [L-NAME, NG-nitro-L-arginine methyl ester]
Implantation in rats; 25 and 50 mg/animal/day continuous s.c. infusion, day 1-7 p.c. or days 5-7 p.c.
  effect on implantation: profound effect on implantation
Implantation in rats; [2]
  size of the implantation sites: dose-dependent inhibition
  weight of the implantation sites: dose-dependent inhibition
Implantation in rats; 25 and 50 mg/animal/day s.c. infusion, haemorrhagic changes defined as pathological
  pathological changes in the implantation sites: induced pathological changes in the implantation sites (mainly haemorrhages)

## N=C(N)NCCC[C@H](N)C(=O)O [L-arginine]
[1]
  relaxation of spontaneous activity of uterine strips: rapid and substantial relaxation

## CC(=O)Oc1ccccc1C(=O)O [aspirin]
Uterine blood flow
  effect on uterine blood flow: only marginal

## CN(C)c1ccc([C@H]2C[C@]3(C)[C@@H](CC[C@]3(O)CCCO)[C@@H]3CCC4=CC(=O)CCC4=C32)cc1 [onapristone]
implantation
  L-NAME-induced effects on implantation with added antiprogestin: enhanced
